Assays:
[1] = biological target: T1, Leucine-rich repeat serine/threonine-protein kinase 2 (Homo sapiens, UniProt Q5S007, G2019S); experiment: Inhibition of recombinant human GST tagged truncated LRRK2 G2019S mutant using fluorescein-labeled LRRKtide as substrate in presence of ATP preincubated for 50 mins followed by anti-phospho-LRRKtide antibody addition and measured after 30 mins by TR-FRET based Lanthascreen kinase activity assay
[2] = biological target: T2, Leucine-rich repeat serine/threonine-protein kinase 2 (Homo sapiens, UniProt Q5S007); experiment: Binding affinity to human LRRK2 WT incubated for 2 hrs by TR-FRET based Lanthascreen kinase activity assay
[3] = biological target: T2, Leucine-rich repeat serine/threonine-protein kinase 2; experiment: Inhibition of recombinant human LRRK2 WT using fluorescein-labeled LRRKtide as substrate in presence of ATP preincubated for 50 mins followed by anti-phospho-LRRKtide antibody addition and measured after 30 mins by TR-FRET based Lanthascreen kinase activity assay
[4] = biological target: T1, Leucine-rich repeat serine/threonine-protein kinase 2; experiment: Binding affinity to human GST tagged truncated LRRK2 G2019S mutant incubated for 2 hrs by TR-FRET based Lanthascreen kinase activity assay
[5] = biological target: T2, Leucine-rich repeat serine/threonine-protein kinase 2; experiment: Inhibition of LRRK2-pSer935 in LRRK2 WT expressing human HEK293 cells and measured after 48 hrs by ICW assay; type: cell-based
[6] = biological target: T1, Leucine-rich repeat serine/threonine-protein kinase 2; experiment: Inhibition of LRRK2-pSer935 in LRRK2 G2019S mutant expressing human HEK293 cells and measured after 48 hrs by ICW assay; type: cell-based
[7] = biological target: T3, NUAK family SNF1-like kinase 1 (Homo sapiens) (UniProt O60285); experiment: Inhibition of ARK5 (unknown origin) assessed as remaining activity using botin-anti-his and Lanthascreen Eu-streptavidin at 1 uM incubated for 2 hrs by TR-FRET based Lanthascreen kinase activity assay relative to control
T3 sequence (whole entry): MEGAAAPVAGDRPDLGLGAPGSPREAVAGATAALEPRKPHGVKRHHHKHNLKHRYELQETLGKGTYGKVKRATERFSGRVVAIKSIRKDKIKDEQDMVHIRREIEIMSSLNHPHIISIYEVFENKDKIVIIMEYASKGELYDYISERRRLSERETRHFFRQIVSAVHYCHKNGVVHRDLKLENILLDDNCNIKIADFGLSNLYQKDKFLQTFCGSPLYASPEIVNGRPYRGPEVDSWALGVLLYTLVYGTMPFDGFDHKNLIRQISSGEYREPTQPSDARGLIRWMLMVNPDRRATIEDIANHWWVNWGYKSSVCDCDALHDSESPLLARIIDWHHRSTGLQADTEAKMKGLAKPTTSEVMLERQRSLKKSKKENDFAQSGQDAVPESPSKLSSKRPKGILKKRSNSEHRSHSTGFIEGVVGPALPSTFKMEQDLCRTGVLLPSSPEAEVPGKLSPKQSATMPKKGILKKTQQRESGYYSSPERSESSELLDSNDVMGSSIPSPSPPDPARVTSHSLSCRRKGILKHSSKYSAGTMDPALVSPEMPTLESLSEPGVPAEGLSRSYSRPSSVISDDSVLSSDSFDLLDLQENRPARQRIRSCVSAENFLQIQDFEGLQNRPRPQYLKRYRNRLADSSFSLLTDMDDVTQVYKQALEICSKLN

[8] = biological target: Proto-oncogene tyrosine-protein kinase receptor Ret (Homo sapiens) (UniProt P07949); experiment: Inhibition of RET (unknown origin) assessed as remaining activity using botin-anti-his and Lanthascreen Eu-streptavidin measured at 1 uM incubated for 2 hrs by TR-FRET based Lanthascreen kinase activity assay relative to control
[9] = Aqueous solubility of the compound; type: physicochemical; settings: buffer

T1 sequence (Q5S007 whole entry G2019S, the tested form may be a part): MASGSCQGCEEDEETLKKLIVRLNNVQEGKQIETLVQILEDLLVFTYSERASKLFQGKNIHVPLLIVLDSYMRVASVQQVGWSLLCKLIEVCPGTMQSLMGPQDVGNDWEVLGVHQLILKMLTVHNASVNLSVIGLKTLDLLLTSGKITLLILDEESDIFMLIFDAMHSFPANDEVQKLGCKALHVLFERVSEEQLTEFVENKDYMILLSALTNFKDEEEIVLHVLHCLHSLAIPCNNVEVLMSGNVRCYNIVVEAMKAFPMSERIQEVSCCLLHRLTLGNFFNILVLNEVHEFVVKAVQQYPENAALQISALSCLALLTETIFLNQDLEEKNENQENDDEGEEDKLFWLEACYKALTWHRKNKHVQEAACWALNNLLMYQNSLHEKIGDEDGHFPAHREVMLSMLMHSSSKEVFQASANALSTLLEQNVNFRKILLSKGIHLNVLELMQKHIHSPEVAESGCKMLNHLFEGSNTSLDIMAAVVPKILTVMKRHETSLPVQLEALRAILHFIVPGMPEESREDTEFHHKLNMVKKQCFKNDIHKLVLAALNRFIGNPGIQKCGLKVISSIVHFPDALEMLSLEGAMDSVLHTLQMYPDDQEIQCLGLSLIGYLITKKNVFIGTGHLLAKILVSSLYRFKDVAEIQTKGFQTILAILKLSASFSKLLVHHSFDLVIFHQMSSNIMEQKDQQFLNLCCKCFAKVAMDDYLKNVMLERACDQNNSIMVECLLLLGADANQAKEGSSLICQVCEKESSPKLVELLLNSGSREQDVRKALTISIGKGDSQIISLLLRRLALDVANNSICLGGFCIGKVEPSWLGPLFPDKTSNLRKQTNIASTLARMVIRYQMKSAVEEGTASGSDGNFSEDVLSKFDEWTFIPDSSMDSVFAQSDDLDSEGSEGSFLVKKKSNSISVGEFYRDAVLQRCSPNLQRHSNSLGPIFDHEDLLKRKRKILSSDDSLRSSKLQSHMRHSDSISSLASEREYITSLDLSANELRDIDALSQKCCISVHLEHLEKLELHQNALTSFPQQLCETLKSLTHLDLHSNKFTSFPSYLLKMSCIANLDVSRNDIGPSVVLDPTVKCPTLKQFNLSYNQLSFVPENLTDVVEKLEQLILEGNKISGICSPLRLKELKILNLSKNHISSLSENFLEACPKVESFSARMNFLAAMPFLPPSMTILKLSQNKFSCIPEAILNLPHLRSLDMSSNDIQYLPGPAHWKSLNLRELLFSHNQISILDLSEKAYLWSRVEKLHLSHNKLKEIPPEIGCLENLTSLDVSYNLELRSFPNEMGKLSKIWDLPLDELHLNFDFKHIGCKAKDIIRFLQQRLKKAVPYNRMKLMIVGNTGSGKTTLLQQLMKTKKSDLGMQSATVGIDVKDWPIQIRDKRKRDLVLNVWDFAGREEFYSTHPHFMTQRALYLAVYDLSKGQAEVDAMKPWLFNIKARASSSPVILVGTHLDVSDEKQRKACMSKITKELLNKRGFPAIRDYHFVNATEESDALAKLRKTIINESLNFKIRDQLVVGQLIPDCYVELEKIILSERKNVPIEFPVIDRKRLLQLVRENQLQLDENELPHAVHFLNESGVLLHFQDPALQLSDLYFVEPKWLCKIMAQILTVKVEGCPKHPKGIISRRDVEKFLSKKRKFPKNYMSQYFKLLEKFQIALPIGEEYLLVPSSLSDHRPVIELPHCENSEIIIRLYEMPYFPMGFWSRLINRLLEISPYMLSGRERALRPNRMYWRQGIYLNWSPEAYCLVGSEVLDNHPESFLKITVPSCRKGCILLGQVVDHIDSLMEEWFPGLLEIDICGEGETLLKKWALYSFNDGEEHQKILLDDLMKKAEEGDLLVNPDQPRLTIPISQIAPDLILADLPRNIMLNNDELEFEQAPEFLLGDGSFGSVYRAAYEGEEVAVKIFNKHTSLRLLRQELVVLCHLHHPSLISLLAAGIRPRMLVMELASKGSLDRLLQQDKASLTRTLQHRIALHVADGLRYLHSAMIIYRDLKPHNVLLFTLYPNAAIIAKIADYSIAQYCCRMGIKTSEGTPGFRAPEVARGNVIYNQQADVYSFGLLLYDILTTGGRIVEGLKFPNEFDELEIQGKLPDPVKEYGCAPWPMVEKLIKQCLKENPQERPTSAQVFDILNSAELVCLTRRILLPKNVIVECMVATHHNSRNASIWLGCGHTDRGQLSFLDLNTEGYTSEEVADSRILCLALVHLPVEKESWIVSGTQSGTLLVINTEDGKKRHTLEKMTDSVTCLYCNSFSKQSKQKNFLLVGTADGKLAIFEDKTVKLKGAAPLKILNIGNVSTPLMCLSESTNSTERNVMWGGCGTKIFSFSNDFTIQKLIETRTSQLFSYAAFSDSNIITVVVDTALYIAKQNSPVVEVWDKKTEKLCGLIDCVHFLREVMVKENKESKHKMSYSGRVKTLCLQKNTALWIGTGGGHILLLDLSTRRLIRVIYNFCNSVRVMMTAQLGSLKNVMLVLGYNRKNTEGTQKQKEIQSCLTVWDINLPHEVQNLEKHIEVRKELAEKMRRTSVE
T2 sequence (Q5S007 whole entry): as the sequence (Q5S007 whole entry G2019S, the tested form may be a part) above, with S2019G counted along it
Sequence of Proto-oncogene tyrosine-protein kinase receptor Ret (Homo sapiens) (P07949 whole entry): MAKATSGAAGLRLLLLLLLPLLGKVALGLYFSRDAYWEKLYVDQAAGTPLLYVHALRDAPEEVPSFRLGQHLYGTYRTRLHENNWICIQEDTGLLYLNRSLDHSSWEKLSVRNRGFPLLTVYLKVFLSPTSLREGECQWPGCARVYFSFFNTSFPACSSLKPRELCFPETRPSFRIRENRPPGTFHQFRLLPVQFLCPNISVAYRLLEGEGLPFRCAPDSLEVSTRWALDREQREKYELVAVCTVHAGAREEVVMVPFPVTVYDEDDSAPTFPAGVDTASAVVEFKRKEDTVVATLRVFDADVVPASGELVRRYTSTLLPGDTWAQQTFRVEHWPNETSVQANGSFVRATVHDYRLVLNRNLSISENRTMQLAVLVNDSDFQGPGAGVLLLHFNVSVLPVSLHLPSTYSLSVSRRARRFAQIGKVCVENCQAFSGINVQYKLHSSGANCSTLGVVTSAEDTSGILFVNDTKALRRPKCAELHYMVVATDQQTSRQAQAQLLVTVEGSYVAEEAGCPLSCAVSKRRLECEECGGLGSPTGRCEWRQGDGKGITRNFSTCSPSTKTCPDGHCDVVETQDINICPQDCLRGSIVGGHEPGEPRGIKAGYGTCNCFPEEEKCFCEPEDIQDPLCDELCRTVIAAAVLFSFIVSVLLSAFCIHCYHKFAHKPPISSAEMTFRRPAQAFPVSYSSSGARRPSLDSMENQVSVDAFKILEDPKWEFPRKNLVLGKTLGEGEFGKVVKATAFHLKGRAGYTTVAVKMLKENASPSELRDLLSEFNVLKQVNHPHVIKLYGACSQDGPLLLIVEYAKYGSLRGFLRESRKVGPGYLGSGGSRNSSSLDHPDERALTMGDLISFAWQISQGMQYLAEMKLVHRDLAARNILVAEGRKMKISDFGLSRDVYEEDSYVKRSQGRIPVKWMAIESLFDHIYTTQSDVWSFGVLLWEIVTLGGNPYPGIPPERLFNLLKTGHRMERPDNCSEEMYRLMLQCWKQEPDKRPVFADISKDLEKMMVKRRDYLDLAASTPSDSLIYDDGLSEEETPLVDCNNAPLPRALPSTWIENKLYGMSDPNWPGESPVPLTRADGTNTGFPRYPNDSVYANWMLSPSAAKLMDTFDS

Compound	IC50 [1] [nM]	Ki [2] [nM]	IC50 [3] [nM]	Ki [4] [nM]	IC50 [5] [nM]	IC50 [6] [nM]	Activity [7] [%]	Activity [8] [%]	solubility [9]
Cn1c(N)c(C#N)c2c(N)ncnc21	8560	346	14400	589	–	–	–	–	–
Cc1c(Nc2nc(N)c3c(C#N)c(N4CCC[C@H]4C)n(C)c3n2)cnn1CC(C)(C)O	35	–	43	–	280	120	–	–	–
Cn1c(NCc2ccccc2F)c(C#N)c2c(N)ncnc21	1740	145	6060	120	–	–	–	–	–
Cc1cn(C)nc1Nc1cc2c(c(N)n1)c(C#N)c(N1CCC[C@H]1C)n2C	1290	63	2110	75	–	–	-7	8	–
C[C@@H]1CCCN1c1c(C(N)=O)c2c(N)ncnc2n1C	2240	77	3190	154	–	–	–	–	–
C[C@@H]1CCCN1c1c(C#N)c2c(N)nc(Nc3cnn(C)c3)nc2n1C	5	0.1	6	0.3	–	–	91	103	–
Cc1c(Nc2nc(N)c3c(C#N)c(N4CCC[C@H]4C)n(C)c3n2)cnn1C1COC1	37	–	47	–	300	190	–	–	–
Cn1c(N2CCCC2)c(C#N)c2c(N)ncnc21	1910	41	1480	125	–	–	–	–	–
Cc1c(Nc2nc(N)c3c(C#N)c(N4CCC[C@H]4C)n(C)c3n2)cnn1CC1(O)COC1	10	–	16	–	220	120	–	–	–
C[C@@H]1CCCN1c1c(C#N)c2c(N)nc(Nc3cnn(C)c3)cc2n1C	–	538	–	794	–	–	–	–	–
C[C@@H]1CCCN1c1c(C#N)c2c(N)ncnc2n1C	11	0.4	15	0.7	–	–	93	64	–
C[C@@H]1CCCN1c1c(C#N)c2c(N)nc(Nc3cn(C)nc3Cl)nc2n1C	21	–	34	–	190	54	–	–	–
Cn1c(NCc2ccccc2)c(C#N)c2c(N)ncnc21	3530	423	–	243	–	–	–	–	–
C[C@@H]1CCCN1c1c(C#N)c2c(N)nccc2n1C	28	0.8	34	2	–	–	65	37	–
Nc1ncnc2[nH]ncc12	26600	–	–	11300	–	–	–	–	–
CN(C)c1c(C#N)c2c(N)ncnc2n1C	3760	111	4620	259	–	–	–	–	–
Nc1ncnc2nc[nH]c12 [ADENINE]	15800	–	–	6720	–	–	–	–	–
C[C@@H]1CCCN1c1c(C#N)c2c(N)nc(Nc3cn[nH]c3)nc2n1C	6	0.2	6	0.4	–	–	97	101	–

Compound	IC50 [1] [nM]	Ki [2] [nM]	IC50 [3] [nM]	Ki [4] [nM]	IC50 [5] [nM]	IC50 [6] [nM]	Activity [7] [%]	Activity [8] [%]	solubility [9]
C[C@@H]1CCCN1c1cc2c(N)ncnc2n1C	6390	164	6830	439	–	–	–	–	–
Cc1nn(C2COC2)cc1Nc1nc(N)c2c(C#N)c(N3CCC[C@H]3C)n(C)c2n1	25	–	38	–	240	140	–	–	–
Cc1nn(C)cc1Nc1nc(N)c2c(C#N)c(N3CCC[C@H]3C)n(C)c2n1	30	1	38	2	190	120	–	–	–
C[C@@H]1CCCN1c1c(C#N)c2c(N)nc(Nc3cn(C)nc3C(F)(F)F)nc2n1C	358	–	508	–	910	460	–	–	–
Cc1c(Nc2nc(N)c3c(C#N)c(N4CCC[C@H]4C)n(C)c3n2)cnn1C	43	2	75	3	310	260	–	–	–
Cc1nn(C2CCOC2)cc1Nc1nc(N)c2c(C#N)c(N3CCC[C@H]3C)n(C)c2n1 (single isomer, unassigned)	28	–	44	–	260	180	–	–	–
Cn1c(-c2ccccc2)c(C#N)c2c(N)ncnc21	483	30	1260	33	–	–	–	–	–
Cn1c(-c2cccc(F)c2F)c(C#N)c2c(N)ncnc21	159	14	572	11	–	–	–	–	–
C[C@H]1CCCN1c1c(C#N)c2c(N)ncnc2n1C	3080	136	5660	212	–	–	–	–	–
CN(C)c1ncnc2nc[nH]c12 [DIMETHYLADENINE]	3350	–	–	1420	–	–	–	–	–
Cc1nn(CC2(O)COC2)cc1Nc1nc(N)c2c(C#N)c(N3CCC[C@H]3C)n(C)c2n1	51	–	57	–	410	250	–	–	–
C[C@@H]1CCCN1c1c(C#N)c2c(N)nc(Nc3ccn(C)n3)cc2n1C	206	6	234	13	–	–	3	27	–
Cc1n[nH]cc1Nc1nc(N)c2c(C#N)c(N3CCC[C@H]3C)n(C)c2n1	27	1	42	2	–	–	-5	8	–
C[C@@H]1CCCN1c1[nH]c2ncnc(N)c2c1C#N	201	4	166	14	–	–	–	–	–
C[C@@H]1CCCN1c1c(C#N)c2c(N)nc(N)nc2n1C	217	6	248	13	–	–	–	–	–
Cn1c(-n2cccc2)c(C#N)c2c(N)ncnc21	–	239	–	1980	–	–	–	–	Insoluble
Cc1nn(CC(C)(C)O)cc1Nc1nc(N)c2c(C#N)c(N3CCC[C@H]3C)n(C)c2n1	42	–	49	–	280	180	–	–	–
Cc1nn(C2CCOC2)cc1Nc1nc(N)c2c(C#N)c(N3CCC[C@H]3C)n(C)c2n1 (mixture of isomers)	12	–	19	–	140	65	–	–	–
